According to patent publication US20220296590A1, “STEREOISOMERS OF THE COMPOUND 3-(BENZO[D][1,3]DIOXOL-5-YL)-7-(1-HYDROXYPROPAN-2-YL)-1-(1H-INDOL-3-YL)-6,7-DIHYDRO-3H-OXAZOL[3,4-A]PYRAZINE-5,8-DIONE AND USE THEREOF AS AN ANTITUMOR AGENT AND PHOSPHODIESTERASE ENZYME INHIBITOR” (BIOLAB SANUS FARMACEUTICA LTDA, priority 2019, published 2022):
Values belong to the compound of their own block, whether it stands above or below them.

Columns and labels:
PDE5A1 enzyme = target: T1, PDE5A1 enzyme (Homo sapiens, UniProt O76074); assay: In vitro inhibition of human phosphodiesterase enzyme 5 (BPS Bioscience PDE5A1 assay kit, fluorescence polarization); type: biochemical
T1 construct: purchased BPS Bioscience 60350
Procedure: The evaluation of the compound is studied using BPS Bioscience enzyme assay kit (catalogue 60350). The PDE5A1 Assay kit is designed for identification of PDE5A1 inhibitors using fluorescence polarization. The assay is based on the binding of a fluorescent nucleotide monophosphate generated by PDE5A1 enzyme to the binding agent.
In this methodology only two simple steps on a microtiter plate are required for PDE5A1 reactions. First, the fluorescently labeled cGMP is incubated with PDE5A1 for 1 hour. Second, the binding agent is added to the reaction mixture to produce a change in fluorescent polarization that can then be measured using a fluorescence reader equipped for the measurement of fluorescence polarization.
For the assay the storage reagent FAM-Cyclic-3′, 5′-GMP (20 μM) is diluted with PDE assay buffer to achieve the solution with a […] concentration; the PDE5A1 enzyme is thawed and diluted with the PDE buffer obtaining a PDE5A1 solution at 10 pg/mL.
The assay compounds are diluted with DMSO 100% (v/v) at a concentration of 1000 μM and subsequently diluted in a Sodium chloride 0.9% solution to obtain a curve of concentrations of interest for the assay. The compounds are diluted in concentrations of: 10 nM, 30 nM, 50 nM, 100 nM, 300 nM, 500 nM, 1 μM, 3 μM, 5 μM (DMSO 10% v/v).
The study is comprised of groups: (i) substrate control; (ii) positive control (KIT); (iii) samples in several concentrations; (iv) tadalafil (comparative control). Each parameter (group) is triple labeled.
For the 4 groups there is added, to each microplate well, […] of the FAM-Cyclic-3′ reagent, 5′-GMP (200 μM).
To the substrate control group there is added, to each well, […] of vehicle (DMSO 10% v/v) and […] PDE Buffer.
To the positive control group there is added, to each well, […] of vehicle (DMSO 10% v/v).
To the tadalafil group: there is added […] of the solution in the concentrations of interest.
To the test group there is added […] of the sample solution (test compound)
OBSERVATION: the parameters tested are in triplicate.
To begin the reaction, add […] of the PDE5A1 enzyme (diluted as described above) to the microplate wells designated as Positive Control and Samples (test and tadalafil), and incubate the microplate, for 1 hour, at a temperature of 25° C.
After the incubation period, the reaction is interrupted by the addition, in all the wells, of […] of the binding agent solution and the microplate is incubated for 30 minutes, under light stirring, at room temperature. The reading of the microplate is carried out in Polarized Fluorescence (475-495 nm—excitation and 518-538 nm—emission detection) 500 nanoseconds integration time.

[1] = test system: DU145-human prostate cancer; assay: Antiproliferative effect in tumor cell culture (CYQuant intracellular DNA, 72 hours), DU145; type: cell-based; conditions: for % Cell Proliferation Inhibition (intracellular DNA) DU145 (average ± E.P.M.): 72 hours
Procedure: (§1) For the execution of the assay, the compounds are diluted in DMSO 100% (v/v) at a concentration of 1000 μM and subsequently diluted in a Sodium Chloride solution 0.9% to obtain the storage solutions of interest for use in the assays. The final concentration of interest will be directly diluted in the cell culture medium. For the assay there are used the following tumor cell lineages: PC3-human prostate cancer cells; LNCAP-human prostate cancer cells; DU145-human prostate cancer; MNK45-human gastric cancer and RT4-human bladder cancer cells. The tumor cell lineages are maintained in culture according to standard procedures established by the Cell Bank of Rio de Janeiro (lineage place of origin). For the assay, the tumor cells are seeded in the concentration of 10.000 cells per well (final volume of the reaction of […]), the plate is incubated for 8 hours, for the cells to adhere to the wall of the wells. After this period, the plate is divided in groups: • (a) test group: […] of the samples were added (test compound) in the concentrations of interest; • (b) positive control group: […] of culture medium were added (100% of cell proliferation); • (c) negative control group: 200 mL of culture medium and […] of the vehicle used were added to dilute the compounds (without cells—zero proliferation); • (d) control group: […] were added of the vehicle used to dilute the compounds. This group is important to evaluate whether the vehicle used interferes in the cell proliferation. OBSERVATION: the treatment with the concentrations of samples (test compounds) and of the controls are carried out in triplicate. Incubate the plate for 72 hours in a CO2 kiln at 37° C. After the incubation period, add […]/well of the solution with DNA marker from the CYQuant Kit and incubate the plate, for 60 minutes, in a CO2 incubator at 37° C. The fluorescence intensity is determined using a fluorescence microplate reader with 485 nm excitation and 530 nm emission detection. The results obtained were normalized relative to the positive control group (100% proliferation). For the compounds there are prepared the storage solutions in the concentrations of: 100 nM, 1 μM, 3 μM, 5 μM, 10 μM and 30 μM (DMSO 10% v/v). While the final concentrations in the test are of: 10 nM, 100 nM, 300 nM, 500 nM, 1000 nM and 3000 nM (in DMSO 1% v/v).

[2] = test system: LNCAP-human prostate cancer cells; assay: Antiproliferative effect in tumor cell culture (CYQuant intracellular DNA, 72 hours), LNCAP; type: cell-based; conditions: for % Cell Proliferation Inhibition (intracellular DNA) LNCAP (average ± E.P.M.): 72 hours
Procedure: as §1

[3] = test system: MNK45-human gastric cancer; assay: Antiproliferative effect in tumor cell culture (CYQuant intracellular DNA, 72 hours), MNK45; type: cell-based
Procedure: as §1

[4] = test system: PC3-human prostate cancer cells; assay: Antiproliferative effect in tumor cell culture (CYQuant intracellular DNA, 72 hours), PC3; type: cell-based; conditions: for % Cell Proliferation Inhibition (intracellular DNA) PC-3 (average ± E.P.M.): 72 hours
Procedure: as §1

[5] = test system: RT4-human bladder cancer cells; assay: Antiproliferative effect in tumor cell culture (CYQuant intracellular DNA, 72 hours), RT4; type: cell-based; conditions: for % Cell Proliferation Inhibition (intracellular DNA) RT4 (average ± E.P.M.): 72 hours
Procedure: as §1

% of Inhibition (PDE5A1) (PDE5A1 enzyme; 10 nM): 0% | concentration as from which PDE5 inhibition was observed (PDE5A1 enzyme; 10 nM to 5000 nM tested): ≥ 300 nM | % of Inhibition (PDE5A1) (PDE5A1 enzyme; 30 nM): 0% | % of Inhibition (PDE5A1) (PDE5A1 enzyme; 50 nM): 0% | % of Inhibition (PDE5A1) (PDE5A1 enzyme; 100 nM): 0% | % of Inhibition (PDE5A1) (PDE5A1 enzyme; 300 nM): 15 ± 3% | % of Inhibition (PDE5A1) (PDE5A1 enzyme; 500 nM, 0.5 µM): 25 ± 3% | % of Inhibition (PDE5A1) (PDE5A1 enzyme; 1000 nM, 1 µM): 55 ± 4% | % of Inhibition (PDE5A1) (PDE5A1 enzyme; 3000 nM, 3 µM): 65 ± 2% | % of Inhibition (PDE5A1) (PDE5A1 enzyme; 5000 nM): 78 ± 1%
SMILES: CC(CO)N1CC(=O)N2C(=C(c3c[nH]c4ccccc34)OC2c2ccc3c(c2)OCO3)C1=O (mixture of isomers) [BL-380, (R)-3-(benzo[d][1,3]dioxol-5-yl) -7-((R)-1-hydroxypropan-2-yl)-1-(1H-indole-3-yl)-6,7-dihydro-3H-oxazole[3,4-a]pyrazine-5,8-dione with (S)-3-(benzo[d][1,3]dioxol-5-yl)-7-((R)-1-hydroxypropan-2-yl)-1-(1H-indole-3-yl)-6,7-dihydro-3H-oxazole[3,4-a]pyrazine-5,8-dione]
PDE5 inhibition, result in words (PDE5A1 enzyme; over the concentrations tested): capable of inhibiting the PDE5 in a dose-dependent manner | % Cell Proliferation Inhibition (intracellular DNA) DU145 (average ± E.P.M.) ([1]; 100 nM, 0.1 µM): 12 ± 4% | % Cell Proliferation Inhibition (intracellular DNA) DU145 (average ± E.P.M.) ([1]; 300 nM, 0.3 µM): 10 ± 5% | % Cell Proliferation Inhibition (intracellular DNA) DU145 (average ± E.P.M.) ([1]; 500 nM, 0.5 µM): 12 ± 2% | % Cell Proliferation Inhibition (intracellular DNA) DU145 (average ± E.P.M.) ([1]; 1000 nM, 1 µM): 10 ± 3% | % Cell Proliferation Inhibition (intracellular DNA) DU145 (average ± E.P.M.) ([1]; 3000 nM, 3 µM): 31 ± 5% | antiproliferative effect, result in words ([1]; DU145 prostate cancer tumor lineage): antiproliferative effect | % Cell Proliferation Inhibition (intracellular DNA) LNCAP (average ± E.P.M.) ([2]; 10 nM, 0.01 µM): 26 ± 10% | % Cell Proliferation Inhibition (intracellular DNA) LNCAP (average ± E.P.M.) ([2]; 100 nM, 0.1 µM): 12 ± 3% | % Cell Proliferation Inhibition (intracellular DNA) LNCAP (average ± E.P.M.) ([2]; 300 nM, 0.3 µM): 29 ± 6% | % Cell Proliferation Inhibition (intracellular DNA) LNCAP (average ± E.P.M.) ([2]; 500 nM, 0.5 µM): 27 ± 2% | % Cell Proliferation Inhibition (intracellular DNA) LNCAP (average ± E.P.M.) ([2]; 1000 nM, 1 µM): 37 ± 2% | % Cell Proliferation Inhibition (intracellular DNA) LNCAP (average ± E.P.M.) ([2]; 3000 nM): 48 ± 6% | antiproliferative effect, result in words ([2]; LNCAP prostate cancer tumor lineage): antiproliferative effect | % Cell Proliferation Inhibition (intracellular DNA) MNK45 (average ± E.P.M.) ([3]; 100 nM, 0.1 µM): 7 ± 2% | % Cell Proliferation Inhibition (intracellular DNA) MNK45 (average ± E.P.M.) ([3]; 300 nM, 0.3 µM): 0% | % Cell Proliferation Inhibition (intracellular DNA) MNK45 (average ± E.P.M.) ([3]; 500 nM, 0.5 µM): 0% | % Cell Proliferation Inhibition (intracellular DNA) MNK45 (average ± E.P.M.) ([3]; 1000 nM, 1 µM): 0% | % Cell Proliferation Inhibition (intracellular DNA) MNK45 (average ± E.P.M.) ([3]; 3000 nM, 3 µM): 16 ± 5% | % Cell Proliferation Inhibition (intracellular DNA) PC-3 (average ± E.P.M.) ([4]; 10 nM, 0.01 µM): 39 ± 6% | % Cell Proliferation Inhibition (intracellular DNA) PC-3 (average ± E.P.M.) ([4]; 100 nM, 0.1 µM): 25 ± 5% | % Cell Proliferation Inhibition (intracellular DNA) PC-3 (average ± E.P.M.) ([4]; 300 nM, 0.3 µM): 28 ± 2% | % Cell Proliferation Inhibition (intracellular DNA) PC-3 (average ± E.P.M.) ([4]; 500 nM, 0.5 µM): 48 ± 6% | % Cell Proliferation Inhibition (intracellular DNA) PC-3 (average ± E.P.M.) ([4]; 1000 nM, 1 µM): 40 ± 3% | % Cell Proliferation Inhibition (intracellular DNA) PC-3 (average ± E.P.M.) ([4]; 3000 nM): 54 ± 4% | antiproliferative effect, result in words ([4]; PC3 prostate cancer tumor lineage): antiproliferative effect | % Cell Proliferation Inhibition (intracellular DNA) RT4 (average ± E.P.M.) ([5]; 100 nM, 0.1 µM): 8 ± 6% | % Cell Proliferation Inhibition (intracellular DNA) RT4 (average ± E.P.M.) ([5]; 300 nM, 0.3 µM): 5 ± 5% | % Cell Proliferation Inhibition (intracellular DNA) RT4 (average ± E.P.M.) ([5]; 500 nM, 0.5 µM): 3 ± 5% | % Cell Proliferation Inhibition (intracellular DNA) RT4 (average ± E.P.M.) ([5]; 1000 nM, 1 µM): 3 ± 1% | % Cell Proliferation Inhibition (intracellular DNA) RT4 (average ± E.P.M.) ([5]; 3000 nM, 3 µM): 58 ± 4% | antiproliferative effect, result in words ([5]; RT4 bladder cancer tumor lineage): antiproliferative effect

SMILES: CN1CC(=O)N2[C@H](c3ccc4c(c3)OCO4)c3[nH]c4ccccc4c3C[C@@H]2C1=O [Tadalafyl, tadalafil, reference compound]
inhibition at 5 µM (PDE5A1 enzyme; read-out: % of Inhibition (PDE5A1)): 96 ± 2%
